The source of these data is patent publication US20120082736A1, “Small-molecule TNF modulator to reduce the side effects of chemotherapy and radiotherapy” (GeneBlue Corporation, priority 2010, published 2012).

Experiment [1] relates to BDF1 female mice treated with cisplatin. The experiment can be described thus: Effect of pretreatment on BUN/creatinine, AST/ALT, WBC/platelet in blood of cisplatin-treated mice (Example 2). The experiment is classed as in vivo. The following applies: daily ×5, blood day 6. On the procedure:
Gp 1: medium (saline). Gp 2: saline followed by cisplatin (2.5 mg/kg) 30 min later. Gp 3: UTL-5g (15 mg/kg) followed by cisplatin (2.5 mg/kg) 30 min later. Gp 4: UTL-5g (30 mg/kg) followed by cisplatin (2.5 mg/kg) 30 min later. Gp 5: UTL-5g (60 mg/kg) followed by cisplatin (2.5 mg/kg) 30 min later. Gp 6: amifostine (200 mg/kg) followed by cisplatin (2.5 mg/kg) 30 min later; Gp 7: saline followed by cisplatin (5 mg/kg) 30 min later. Gp 1-Gp 6 were daily ×5, but Gp 7 was by single dose on day 0 only. StDev is shown for each Gp (n=5 for each group except for Gp 7, n=3). ** two-tailed p<0.005 vs medium control by Student's t-test.
(§1) Gp 1: medium (saline). Gp 2: saline followed by cisplatin (2.5 mg/kg) 30 min later. Gp 3: UTL-5g (15 mg/kg) followed by cisplatin 30 min later. Gp 4: UTL-5g (30 mg/kg) followed by cisplatin (2.5 mg/kg) 30 min later. Gp 5: UTL-5g (60 mg/kg) followed by cisplatin (2.5 mg/kg) 30 min later. Gp 6: amifostine (200 mg/kg) followed by cisplatin (2.5 mg/kg) 30 min later. Gp 7: saline followed by cisplatin (5 mg/kg) 30 min later. Gp 1-Gp 6 were daily ×5, but Gp 7 was by single dose on day 0 only. StDev is shown for each Gp (n=5 for each group except n=4 for Gp 7). * P<0.05, ** p<0.005 vs. medium control (Gp 1) by Student's t-test (two-tailed).
as §1, with “p<0.005, *** p<0.0005” for “p<0.005”, “control” for “control (Gp 1)”
BDF1 female mice (average wt ˜20 g/mouse) were randomly divided into the following groups (5 mice per group) and each treated daily ×5 (starting from day 0) by ip injection (0.25 mL/mouse), except in Gp 7, each was treated by a single dose ip injection (0.25 mL/mouse) on day 0 only, as described below • Gp 1: medium (saline) followed by medium (saline) 30 min later • Gp 2: medium (saline) followed by cisplatin (2.5 mg/kg) 30 min later • Gp 3: UTL-5g (15 mg/kg) followed by cisplatin (2.5 mg/kg) 30 min later • Gp 4: UTL-5g (30 mg/kg) followed by cisplatin (2.5 mg/kg) 30 min later • Gp 5: UTL-5g (60 mg/kg) followed by cisplatin (2.5 mg/kg) 30 min later • Gp 6: amifostine (200 mg/kg) followed by cisplatin (2.5 mg/kg) 30 min later • Gp 7: medium (saline) followed by cisplatin (5 mg/kg) 30 min later (single dose on Day 0 only)
Preparation of the test samples are described below: • Cisplatin: Cisplatin was dissolved in saline (0.2 and 0.4 mg/mL in saline) for 2.5 and 5 mg/kg ip injection. • UTL-5g: The stock solution of UTL-5g was first dissolved in DMSO and equal volume of Cremophor/propylene glycol (60/40 v/v) was added to make a stock solution. Immediately before the injection, saline was added to this temporary solution at a 90:10 v/v ratio and mixed thoroughly. Three concentrations for ip injection were prepared (1.25, 2.5, and 5 mg/mL) so that the doses are equivalent to 15, 30, and 60 mg/kg with a 0.25 mL injection. • Amifostine: The stock solution of amifostine was dissolved in saline to the desired concentration (16 mg/mL) for the 200 mg/kg injection.
Cardiac puncture was used to obtain blood from each mouse on day 6. To assess liver/kidney protection by UTL-5g, all blood samples were analyzed for BUN, creatinine, AST, and ALT by the chemistry lab at Henry Ford Health System. Unopette® (Becton Dickinson, Franklin Lakes, N.J.) diluting systems and a hemocytometer were used to assess the effect of UTL-5g on WBC and platelet counts in blood.

Experiment [2] concerns human colon cancer cells (HCT-15). The experiment can be described thus: Effect of UTL-5g pretreatment on antitumor effect of cisplatin, HCT-15 tumors in SCID mice (Example 4). Format: in vivo. On the procedure: FIG. 7. Effect of UTL-5g pre-treatment on the antitumor effect of cisplatin Group 1, saline, daily ×5 (control); Group 2, cisplatin (2.5 mg/kg) in saline, daily ×5; Group 3, UTL-5g (60 mg/kg) followed by cisplatin (2.5 mg/kg) 30 min later, daily ×5. […] Gp: Group
In order to qualify UTL-5g as a chemoprotective agent, a therapeutic assessment was conducted to evaluate the effect of UTL-5g on the efficacy of cisplatin. Briefly, 25 SCID mice were randomly divided into 5 groups as below. • Gp 1: Saline daily ×5 (control) • Gp 2: Cisplatin 0.2 mg/mL (2.5 mg/kg), daily ×5 • Gp 3: UTL-5g (60 mg/kg) followed by cisplatin (2.5 mg/kg) 30 min later, daily ×5 • Gp 4: Cisplatin 0.4 mg/mL ([…]) in saline, day 1 only • Gp 5: UTL-5g (60 mg/kg) followed by cisplatin (5 mg/kg) 30 min later, day 1 only
Cisplatin was dissolved in saline. UTL-5g was prepared in DMSO/Cremophor/propylene glycol/saline as described in previous section. All injections were ip and the injection volume was 0.25 mL. Three days before treatment (Day −2), human colon cancer cells (HCT-15) were injected subcutaneously and bilaterally (1×10^6 cells per site per mouse) in each SCID mouse in all groups and tumor sizes were measured by a caliper every 2-3 days and the animals were sacrificed when tumor reached 1,200 mm^3.
The % T/C value is used here as the end-point. […]

The mark [3] stands for this setting: UTL-5g 15, 30, 60 mg/kg ip 30 min before cisplatin 2.5 mg/kg.
Setting [4] is: ip 30 min before cisplatin 2.5 mg/kg, UTL-5g 15, 30, 60 mg/kg, amifostine 200 mg/kg.

“Also recorded” adds a separate entry of the source. A value given as a limit tells only on which side of the number the result lay.

As for `Cc1cc(C(=O)Nc2ccc(Cl)cc2Cl)no1` [UTL-5g], the “platelet count relative to control” value in experiment [1] (UTL-5g 60 mg/kg ip 30 min before cisplatin 2.5 mg/kg) is given as > 3 times of the control. In experiment [1] (setting [3]), the “ALT levels, effect of pretreatment” value is reported as “also reduced by UTL-5g; also recorded: lowered the elevated levels” and the “AST levels, effect of pretreatment” value was “reduced by UTL-5g; also recorded: lowered the elevated levels”. For the same compound, the “WBC count, effect of pretreatment” value in experiment [1] (UTL-5g ip 30 min before cisplatin 2.5 mg/kg) is “did not significantly increase the WBC count”. In experiment [1] (setting [4]), the “BUN levels, effect of pretreatment” value is given as “suppressed by UTL-5g in a dose-dependent manner; also recorded: lowered the elevated levels” and the “creatinine, effect of pretreatment” value is reported as “Essentially the same results; also recorded: lowered the elevated levels”. In addition, the “platelet count, effect of pretreatment” value in experiment [1] (ip 30 min before cisplatin 2.5 mg/kg, UTL-5g 15, 30, 60 mg/kg, amifostine 200 mg/kg, vs Gp 1 (Control)) is on record as “increased platelet count in a dose-dependent manner”. Also, the “effect on efficacy of cisplatin” value in experiment [2] (UTL-5g 60 mg/kg 30 min before cisplatin 2.5 mg/kg, daily ×5 (Gp 3 vs Gp 2)) was “increased the efficacy of cisplatin; also recorded: did not have tumor-protective effect and actually increased the efficacy of cisplatin”. Moreover, the “enhancement of efficacy of cisplatin” value in experiment [2] (UTL-5g 60 mg/kg 30 min before cisplatin 5 mg/kg, single dose (Gp 5 vs Gp 4)) is listed as “not observed”.
